Columns and labels:
Format in all cases: cell-based
human TLR8 = molecular target: T1, human TLR8 (Homo sapiens, UniProt Q9NR97); assay: TLR8 inhibition reporter assay (HEK-Blue SEAP reporter, R848 stimulation); conditions: HEK-Blue cells overexpressing human TLR8, SEAP reporter, R848 15.9 μM, 22 hour incubation
T1 construct: host or cells: HEK-Blue cells
T1 sequence (Q9NR97 27-1041): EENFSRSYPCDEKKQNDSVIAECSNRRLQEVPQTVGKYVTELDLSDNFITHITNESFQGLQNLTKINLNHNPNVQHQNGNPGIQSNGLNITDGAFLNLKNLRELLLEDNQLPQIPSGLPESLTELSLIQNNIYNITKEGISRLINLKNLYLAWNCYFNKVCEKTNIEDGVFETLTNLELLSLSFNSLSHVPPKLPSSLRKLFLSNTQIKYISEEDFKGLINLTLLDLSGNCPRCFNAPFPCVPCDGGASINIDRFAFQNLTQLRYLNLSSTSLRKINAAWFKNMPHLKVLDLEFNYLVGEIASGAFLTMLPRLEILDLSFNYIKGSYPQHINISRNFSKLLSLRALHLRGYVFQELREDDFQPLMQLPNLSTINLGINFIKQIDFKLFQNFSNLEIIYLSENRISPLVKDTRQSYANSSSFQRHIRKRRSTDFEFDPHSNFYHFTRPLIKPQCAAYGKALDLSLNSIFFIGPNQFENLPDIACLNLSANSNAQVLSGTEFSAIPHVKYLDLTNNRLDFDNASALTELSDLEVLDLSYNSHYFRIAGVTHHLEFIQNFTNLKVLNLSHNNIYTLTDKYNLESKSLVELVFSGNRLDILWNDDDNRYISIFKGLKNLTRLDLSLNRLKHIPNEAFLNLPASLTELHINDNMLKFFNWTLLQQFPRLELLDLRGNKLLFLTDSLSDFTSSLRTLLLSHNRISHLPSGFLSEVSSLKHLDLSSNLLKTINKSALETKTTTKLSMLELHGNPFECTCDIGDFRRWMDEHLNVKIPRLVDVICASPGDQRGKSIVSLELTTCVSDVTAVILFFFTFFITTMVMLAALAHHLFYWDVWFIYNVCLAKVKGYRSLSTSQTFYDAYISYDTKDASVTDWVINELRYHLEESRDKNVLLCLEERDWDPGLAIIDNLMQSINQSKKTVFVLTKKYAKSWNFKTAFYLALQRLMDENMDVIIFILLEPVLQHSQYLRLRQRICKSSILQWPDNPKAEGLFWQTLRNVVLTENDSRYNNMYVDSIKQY
Summary of the method: (§1)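 Screening used HEK-Blue cells overexpressing one human TLR (7, 8 or 9) and an IFN-β minimal promoter–NF-κB/AP-1 SEAP construct. Stimulation lasted 22 h at 37 °C with receptor-specific agonist: gardiquimod, R848 or ODN2006 at 7.5 μM, 15.9 μM and 5 nM.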

human TLR7 = molecular target: T2, human TLR7 (Homo sapiens, UniProt Q9NYK1); assay: TLR7 inhibition reporter assay (HEK-Blue SEAP reporter, gardiquimod stimulation); conditions: HEK-Blue cells overexpressing human TLR7, SEAP reporter, gardiquimod 7.5 μM, 22 hour incubation
T2 construct: host or cells: HEK-Blue cells
T2 sequence (Q9NYK1 27-1049): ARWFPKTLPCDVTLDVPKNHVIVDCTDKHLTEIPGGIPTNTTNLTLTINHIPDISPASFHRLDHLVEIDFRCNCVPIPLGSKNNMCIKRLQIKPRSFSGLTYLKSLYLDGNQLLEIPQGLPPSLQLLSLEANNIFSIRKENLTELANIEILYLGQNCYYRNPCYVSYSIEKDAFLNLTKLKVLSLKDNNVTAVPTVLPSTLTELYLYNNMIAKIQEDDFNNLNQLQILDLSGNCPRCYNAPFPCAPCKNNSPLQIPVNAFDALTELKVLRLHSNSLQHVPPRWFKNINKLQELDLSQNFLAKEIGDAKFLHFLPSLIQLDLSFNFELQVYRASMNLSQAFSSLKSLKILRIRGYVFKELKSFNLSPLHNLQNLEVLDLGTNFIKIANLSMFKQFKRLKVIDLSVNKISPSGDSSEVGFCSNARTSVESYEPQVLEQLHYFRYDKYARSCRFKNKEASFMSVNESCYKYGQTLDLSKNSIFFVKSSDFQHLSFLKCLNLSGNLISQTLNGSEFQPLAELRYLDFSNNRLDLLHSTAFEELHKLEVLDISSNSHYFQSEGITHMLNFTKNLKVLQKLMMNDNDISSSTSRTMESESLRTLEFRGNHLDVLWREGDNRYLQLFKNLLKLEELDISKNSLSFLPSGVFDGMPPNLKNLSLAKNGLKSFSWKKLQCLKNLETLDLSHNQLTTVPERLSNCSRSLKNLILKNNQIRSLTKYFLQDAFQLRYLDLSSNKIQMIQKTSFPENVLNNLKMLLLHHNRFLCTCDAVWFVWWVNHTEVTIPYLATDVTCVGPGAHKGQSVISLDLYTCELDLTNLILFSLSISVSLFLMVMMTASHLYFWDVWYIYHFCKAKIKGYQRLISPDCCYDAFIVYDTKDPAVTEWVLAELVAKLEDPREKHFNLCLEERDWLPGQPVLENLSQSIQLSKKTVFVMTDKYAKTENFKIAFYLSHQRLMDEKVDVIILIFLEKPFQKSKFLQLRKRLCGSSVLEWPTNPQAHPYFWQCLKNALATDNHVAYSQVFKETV
Summary of the method: as §1

human TLR9 = molecular target: T3, human TLR9 (Homo sapiens, UniProt Q9NR96); assay: TLR9 inhibition reporter assay (HEK-Blue SEAP reporter, ODN2006 stimulation); conditions: HEK-Blue cells overexpressing human TLR9, SEAP reporter, ODN2006 5 nM, 22 hour incubation
T3 construct: host or cells: HEK-Blue cells
T3 sequence (Q9NR96 26-1032): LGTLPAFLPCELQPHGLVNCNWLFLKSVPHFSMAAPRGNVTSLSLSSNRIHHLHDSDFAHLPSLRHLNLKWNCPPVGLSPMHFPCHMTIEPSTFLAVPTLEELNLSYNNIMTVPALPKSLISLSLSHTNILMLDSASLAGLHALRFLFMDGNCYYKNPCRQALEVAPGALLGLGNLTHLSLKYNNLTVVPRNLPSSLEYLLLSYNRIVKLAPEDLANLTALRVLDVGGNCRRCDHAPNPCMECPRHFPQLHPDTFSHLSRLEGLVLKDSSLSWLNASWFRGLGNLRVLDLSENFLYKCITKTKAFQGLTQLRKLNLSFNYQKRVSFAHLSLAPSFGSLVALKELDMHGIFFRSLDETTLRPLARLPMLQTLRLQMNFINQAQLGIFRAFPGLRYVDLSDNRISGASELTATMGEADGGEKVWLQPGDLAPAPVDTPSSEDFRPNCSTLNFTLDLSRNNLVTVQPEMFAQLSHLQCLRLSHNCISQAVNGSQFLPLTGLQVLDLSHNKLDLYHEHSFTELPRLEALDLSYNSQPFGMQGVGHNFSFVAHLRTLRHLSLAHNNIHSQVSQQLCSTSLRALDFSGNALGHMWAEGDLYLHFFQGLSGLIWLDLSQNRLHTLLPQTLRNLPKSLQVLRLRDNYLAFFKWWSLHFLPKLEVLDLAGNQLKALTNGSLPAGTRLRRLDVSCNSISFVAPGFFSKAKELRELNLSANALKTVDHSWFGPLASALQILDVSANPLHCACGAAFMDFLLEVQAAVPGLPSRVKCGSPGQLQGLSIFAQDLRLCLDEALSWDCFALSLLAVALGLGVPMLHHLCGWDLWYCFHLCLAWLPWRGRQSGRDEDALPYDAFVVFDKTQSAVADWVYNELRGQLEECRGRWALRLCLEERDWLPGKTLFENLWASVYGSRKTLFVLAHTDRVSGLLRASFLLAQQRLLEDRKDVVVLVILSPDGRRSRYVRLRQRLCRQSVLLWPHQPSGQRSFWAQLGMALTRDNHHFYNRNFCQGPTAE
Summary of the method: as §1

Row | SMILES | IC50 (human TLR8) [nM] | IC50 (human TLR7) [nM] | IC50 (human TLR9) [nM]
1 | Cc1cc(-c2[nH]c3ccc(C4CCN(C5CCC(C(C)(C)O)CC5)CC4)cc3c2C(C)C)cn(C)c1=O (stereo not drawn) [Example 268, 5-(5-(1-(4-(2-hydroxypropan-2-yl)cyclohexyl)piperidin-4-yl)-3-isopropyl-1H-indol-2-yl)-1,3-dimethylpyridin-2(1H)-one] | 6.6 | 2.4 | 2630
2 | Cc1c(-c2[nH]c3ccc(C4CCN(CC(=O)N(C)C)CC4)cc3c2C(C)C)cn(C)c(=O)c1C [Example 134, 2-(4-(3-isopropyl-2-(1,4,5-trimethyl-6-oxo-1,6-dihydropyridin-3-yl)-1H-indol-5-yl)piperidin-1-yl)-N,N-dimethylacetamide] | 8.7 | 11.9 | 3460
3 | CC(C)c1c(-c2cc(-c3cncnc3)c(=O)n(C)c2)[nH]c2ccc(C3CCN(CCS(C)(=O)=O)CC3)cc12 [Example 108, 5-(3-isopropyl-5-(1-(2-(methylsulfonyl)ethyl)piperidin-4-yl)-1H-indol-2-yl)-1-methyl-3-(pyrimidin-5-yl) pyridin-2(1H)-one] | 2 | 32.8 | 7540
4 | Cc1cc(-c2[nH]c3ccc(C4CCNCC4)cc3c2C(C)C)cn(-c2ccccc2)c1=O [Example 44, 5-(3-isopropyl-5-(piperidin-4-yl)-1H-indol-2-yl)-3-methyl-1-phenylpyridin-2(1H)-one] | 19.4 | 3.8 | 2080
5 | Cc1ccc(-c2cc(-c3[nH]c4ccc(C5CCNCC5)cc4c3C(C)C)cn(C)c2=O)cc1 [Example 55, 5-(3-isopropyl-5-(piperidin-4-yl)-1H-indol-2-yl)-1-methyl-3-(p-tolyl) pyridin-2(1H)-one] | 203 | 13.9 | 2290
6 | COc1c(C)c(-c2[nH]c3ccc(C4CCN(C(=O)CN(C)C)CC4)cc3c2C(C)C)cn(C)c1=O [Example 276, 5-(5-(1-(dimethylglycyl)piperidin-4-yl)-3-isopropyl-1H-indol-2-yl)-3-methoxy-1,4-dimethylpyridin-2(1H)-one] | 80.2 | 52.2 | 4760
7 | Cc1cc(-c2[nH]c3ccc(C4CCN(C5CCCCC5)CC4)cc3c2C(C)C)cn(C)c1=O [Example 87, 5-(5-(1-cyclohexylpiperidin-4-yl)-3-isopropyl-1H-indol-2-yl)-1,3-dimethylpyridin-2(1H)-one] | 5.7 | 3.1 | 2560
8 | CCc1cc(-c2[nH]c3ccc(C4CCNCC4)cc3c2C(C)C)c(C)n(CC)c1=O [Example 35, 1,3-diethyl-5-(3-isopropyl-5-(piperidin-4-yl)-1H-indol-2-yl)-6-methylpyridin-2(1H)-one] | 6.8 | 60 | 574
9 | CC(C)c1c(-c2cc(-c3cncnc3)c(=O)n(C)c2)[nH]c2ccc(C3CCN(CC4COC4)CC3)cc12 [Example 94, 5-(3-isopropyl-5-(1-(oxetan-3-ylmethyl)piperidin-4-yl)-1H-indol-2-yl)-1-methyl-3-(pyrimidin-5-yl)pyridin-2(1H)-one] | 1.3 | 8 | 2030
10 | CCCN1CCC(c2ccc3[nH]c(-c4cc(-c5cccnc5)c(=O)n(C)c4)c(C(C)C)c3c2)CC1 [Example 245, 5-(3-isopropyl-5-(1-propylpiperidin-4-yl)-1H-indol-2-yl)-1-methyl-[3,3′-bipyridin]-2(1H)-one] | 2 | 7.3 | 851
11 | Cc1cc(-c2[nH]c3ccc(C4CCNCC4)cc3c2C(C)C)nn(C)c1=O [Example 11, 6-(3-isopropyl-5-(piperidin-4-yl)-1H-indol-2-yl)-2,4-dimethylpyridazin-3(2H)-one] | 3.3 | 5.3 | 4850
12 | CNCCN1CCC(c2ccc3[nH]c(-c4ccc(=O)n(C)c4)c(C(C)C)c3c2)CC1 [Example 172, 5-(3-isopropyl-5-(1-(2-(methylamino)ethyl)piperidin-4-yl)-1H-indol-2-yl)-1-methylpyridin-2(1H)-one] | 6.9 | 29.9 | 151
13 | CC(C)c1c(-c2cc(N)c(=O)n(C)c2)[nH]c2ccc(C3CCNCC3)cc12 [Example 9, 3-amino-5-(3-isopropyl-5-(piperidin-4-yl)-1H-indol-2-yl)-1-methylpyridin-2(1H)-one] | 11.5 | 50.8 | 879
14 | Cc1c(-c2[nH]c3ccc(C4CCN(C5COC5)CC4)cc3c2C(C)C)nn(C)c(=O)c1C [Example 203, 6-(3-isopropyl-5-(1-(oxetan-3-yl)piperidin-4-yl)-1H-indol-2-yl)-2,4,5-trimethylpyridazin-3(2H)-one] | 28.7 | 272 | 16900
